Biological target: T1, ADCYAP1R1 (Homo sapiens, UniProt P41586)
T1 construct: purchased Promega (in-house HiBiT-GPCR construct library, NanoBRET)
T1 sequence (P41586 21-468): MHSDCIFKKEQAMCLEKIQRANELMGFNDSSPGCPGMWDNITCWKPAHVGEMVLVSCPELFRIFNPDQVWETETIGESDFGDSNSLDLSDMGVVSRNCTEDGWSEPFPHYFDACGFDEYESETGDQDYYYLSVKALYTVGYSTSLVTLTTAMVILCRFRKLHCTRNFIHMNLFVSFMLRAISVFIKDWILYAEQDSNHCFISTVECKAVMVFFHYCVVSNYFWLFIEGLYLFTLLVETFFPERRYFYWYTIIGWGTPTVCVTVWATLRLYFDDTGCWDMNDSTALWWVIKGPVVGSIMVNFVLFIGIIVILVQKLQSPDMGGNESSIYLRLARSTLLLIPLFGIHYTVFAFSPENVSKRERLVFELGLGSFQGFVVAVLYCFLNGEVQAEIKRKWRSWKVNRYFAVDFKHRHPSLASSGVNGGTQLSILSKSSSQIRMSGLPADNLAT
Experiment: NanoBRET screen HiBiT-ADCYAP1R1 in HEK293
Assay type: binding
Experimental: Each tracer candidate was screened across the entire library of HiBiT-GPCR constructs using NanoBRET as the detection modality. As depicted in Figure 4A, the specificity of interactions was evaluated through decrease in BRET due to competitive displacement of a bound tracer by excess parental compound. Each tracer was analyzed for binding to each HiBiT-GPCR fusion in the absence and in the presence of competing parental compound. Briefly, HEK293 cells were transfected with HiBiT-GPCR constructs diluted into promoterless DNA to reduce expression and maximize translocation to the cell surface. Each tracer candidate was then screened at concentrations of 1 μM and 0.1 μM across cells expressing these fusions. Cells were treated for 1.5 h with tracer either alone or in the presence of 20 μM competing parental compound (i.e., control). BRET was measured upon addition of purified LgBiT and subsequent complementation with HiBiT genetically fused to a GPCR. The specificity of interactions was assessed through a decrease in BRET signal due to competitive displacement of the bound tracer. To further gauge the robustness of these interactions, the fold response over the control (i.e., BRETtracer/BRETcontrol) was calculated. We chose a 1.5-fold response, which translates to ≥7-fold signal over noise as the minimal threshold required to score an interaction as positive.
HiBiT-GPCR DNA constructs were diluted in 10 mM Tris pH 8 to a final concentration of 0.01 μg/μL, arrayed in 96-well plates and stored at −20 °C. For transfection, HEK293 cells were suspended in Opti-MEM (without phenol red) supplemented with 2% fetal bovine serum (Seradigm) and 100 units/mL penicillin–streptomycin (Gibco) at a final concentration of 220,000 cells/mL and dispensed into white 96-well plates at 90 μL/well. Subsequent transfections and screens were carried using an Agilent Bravo Automated Liquid Handling Platform. First, the 96-well HiBiT DNA arrays were diluted 25-fold in Opti-MEM (without serum or phenol red) to a final concentration of 0.0004 μg/μL and 20 μL of the diluted DNAs were transferred into new 96-well plates. Next, promoterless carrier DNA (1 μg/μL) was diluted 25-fold (0.04 μg/μL) and then dispensed into the diluted arrays at 20 μL/well. Following brief mixing, Viafect transfection reagent (Promega) diluted 16-fold into Opti-MEM was dispensed into the plates at 40 μL/well. After mixing by pipetting, plates were incubated for 10 min on the pipetting station deck. The DNA-transfection reagent complexes were then added to plates containing cells. To facilitate the screen, 10 μL of DNA-transfection reagent complexes were added in duplicates to the top 4 and bottom 4 rows, resulting in two identical 48-well arrays per plate. Plates with transfected cells were incubated for 18–20 h at 37 °C/5% CO2. A screen of each tracer across the entire library using two different concentrations requires duplicate plates of transfected cells. Depending on the number of tracers being screened, transfections can be scaled up using the same ratios. The next day, for each tracer, four 20× screening solutions in tracer dilution buffer (Promega) were prepared: two duplicates at final concentration of 20 μM and two duplicates at a final concentration of 2 μM. […] The four resulting solutions were diluted 4-fold in Opti-MEM without serum or phenol red to generate 5× solutions (5 µM and 0.5 µM tracer +/− 100 μM competing compound). To screen the library, a BioTek MultiFlo FX liquid dispenser was used to dispense 22.5 µL of tracer solution to the top 4 rows and 22.5 µL tracer + competing compound solution to the 4 bottom rows. Plates were briefly mixed on an orbital shaker and incubated for 1.5 h at room temperature. […] Plates were briefly mixed on an orbital shaker and incubated for 15 min to allow complementation.

SMILES	NanoBRET Fold Response (ADCYAP1R1, tracer 0.1μM)	NanoBRET Fold Response (ADCYAP1R1, tracer 1μM)	other results
COc1ccc2c(n1)c(CCNC(C)=O)cn2CCNC(=O)CCc1ccc2n1[B-](F)(F)[N+]1=C(c3ccc[nH]3)C=CC1=C2 [Azamelatonin-1-NB590]			NanoBRET Fold Response (0.1μM tracer): 0.76; NanoBRET Fold Response (1μM tracer): 0.54
CC(C)N(CC[C@H](c1ccccc1)c1cc(CCNC(=O)c2ccc(CNC(=O)CCc3ccc4n3[B-](F)(F)[N+]3=C(c5ccc[nH]5)C=CC3=C4)cc2)ccc1O)C(C)C [Tolterodine-BZ-NB590]	1.04	1.00	
O=C(CCc1ccc2n1[B-](F)(F)[N+]1=C(c3ccc[nH]3)C=CC1=C2)NCCOCCOCCNC(=O)OCCOCCN1CCN(C2=Nc3ccccc3Sc3ccccc32)CC1 [Quetiapine-a-2-NB590]	1.03	1.11	
Cc1cc2c(s1)Nc1ccccc1N=C2N1CCN(CCCNC(=O)CCOCCOCCOCCOCCNC(=O)CCc2ccc3n2[B-](F)(F)[N+]2=C(c4ccc[nH]4)C=CC2=C3)CC1 [Olanzapine-a-2-NB590]	1.02	1.01	
O=C(CCc1ccc2n1[B-](F)(F)[N+]1=C(c3ccc[nH]3)C=CC1=C2)NCc1ccc(C(=O)NCCOCCOCCNCC(O)COc2cccc3ccccc23)cc1 (centres unmarked) [Propranolol-3-NB590]			NanoBRET Fold Response (ADCYAP1R1, 0.1μM): 1.00; NanoBRET Fold Response (ADCYAP1R1, 1μM): 0.97
CN1CCN(C2=Nc3cc(Cl)ccc3N(CC(=O)NCCOCCOCCOCCOCCNC(=O)CCc3ccc4n3[B-](F)(F)[N+]3=C(c5ccc[nH]5)C=CC3=C4)c3ccccc32)CC1 [Clozapine-c-2-NB590]			NanoBRET Fold Response (ADCYAP1R1, 0.1μM tracer): 0.97; NanoBRET Fold Response (ADCYAP1R1, 1μM tracer): 1.07
O=C(CCc1ccc2n1[B-](F)(F)[N+]1=C(c3ccc[nH]3)C=CC1=C2)NCc1ccc(C(=O)NCCOCCC(=O)N[C@@H]2CC[C@@]3(O)[C@H]4Cc5ccc(O)c6c5[C@@]3(CCN4CC3CC3)[C@H]2O6)cc1 [Naltrexone-3-NB590]	0.88	0.98	
CC(C)N(CC[C@H](c1ccccc1)c1cc(CCNC(=O)CCOCCOCCOCCOCCNC(=O)CCc2ccc3n2[B-](F)(F)[N+]2=C(c4ccc[nH]4)C=CC2=C3)ccc1O)C(C)C [Tolterodine-2-NB590]	0.68	0.93	
Cc1nc2n(c(=O)c1CCN1CCC(c3noc4cc(F)ccc34)CC1)CCCC2OC(=O)NCCOCCOCCOCCOCCNC(=O)CCc1ccc2n1[B-](F)(F)[N+]1=C(c3ccc[nH]3)C=CC1=C2 (centres unmarked) [Risperidone-2-NB590]	0.99	1.02	
O=C(CCOCCOCCOCCOCCNC(=O)CCc1ccc2n1[B-](F)(F)[N+]1=C(c3ccc[nH]3)C=CC1=C2)NCCCN1CCN(C2=Nc3cc(Cl)ccc3Nc3ccccc32)CC1 [Clozapine-a-2-NB590]			NanoBRET Fold Response (ADCYAP1R1, 0.1μM tracer): 1.00; NanoBRET Fold Response (ADCYAP1R1, 1μM tracer): 1.06
COc1ccc2[nH]c(-c3ccc(CNC(=O)CCOCCOCCOCCOCCNC(=O)CCc4ccc5n4[B-](F)(F)[N+]4=C(c6ccc[nH]6)C=CC4=C5)cc3)c(CCNC(C)=O)c2n1 [AzomelatoninICO9-2-NB590]			NanoBRET Fold Response (0.1μM tracer): 1.08; NanoBRET Fold Response (1μM tracer): 0.91
CN1CCN(C2=Nc3cc(Cl)ccc3Nc3ccc(CNC(=O)CCOCCOCCOCCOCCNC(=O)CCc4ccc5n4[B-](F)(F)[N+]4=C(c6ccc[nH]6)C=CC4=C5)cc32)CC1 [Clozapine-b-2-NB590]			NanoBRET Fold Response (ADCYAP1R1, 0.1μM tracer): 1.04; NanoBRET Fold Response (ADCYAP1R1, 1μM tracer): 1.09
COc1ccccc1N1CCN(CCCCN2C(=O)c3ccc(CNC(=O)CCOCCNC(=O)c4ccc(CNC(=O)CCc5ccc6n5[B-](F)(F)[N+]5=C(c7ccc[nH]7)C=CC5=C6)cc4)cc3C2=O)CC1 [NAN-190-3-NB590]	1.25	1.00	
N#CN=C(NCCCOc1cccc(CN2CCCCC2)c1)NCCNC(=O)CCOCCOCCOCCOCCNC(=O)CCc1ccc2n1[B-](F)(F)[N+]1=C(c3ccc[nH]3)C=CC1=C2 [Aminopotentidine-2-NB590]	1.00	1.01	
CN(C)CCC=C1c2ccccc2CCc2ccc(C(=O)NCCNC(=O)CCOCCOCCOCCOCCNC(=O)CCc3ccc4n3[B-](F)(F)[N+]3=C(c5ccc[nH]5)C=CC3=C4)cc21 [Amitriptyline-b-2-NB590]	0.99	0.99	
COc1ccccc1N1CCN(CCCCN2C(=O)c3ccc(CNC(=O)CCOCCOCCOCCOCCNC(=O)CCc4ccc5n4[B-](F)(F)[N+]4=C(c6ccc[nH]6)C=CC4=C5)cc3C2=O)CC1 [NAN-190-2-NB590]	1.08	1.04	
O=C(CCOCCOCCOCCOCCNC(=O)CCc1ccc2n1[B-](F)(F)[N+]1=C(c3ccc[nH]3)C=CC1=C2)NCCCN1CCN(C2=Nc3ccccc3Oc3ccc(Cl)cc32)CC1 [Loxapine-a-2-NB590]	1.03	1.20	
CCCn1c(=O)c2[nH]c(-c3ccc(OCC(=O)NCCNC(=O)CCOCCNC(=O)c4ccc(CNC(=O)CCc5ccc6n5[B-](F)(F)[N+]5=C(c7ccc[nH]7)C=CC5=C6)cc4)cc3)nc2n(CCC)c1=O [XAC-3-NB590]	0.98	0.97	
CCOC(=O)c1cc(C#N)c(N2CCC(C(=O)NS(=O)(=O)Cc3ccccc3/C=C/C(=O)NCCNC(=O)CCc3ccc4n3[B-](F)(F)[N+]3=C(c5ccc[nH]5)C=CC3=C4)CC2)nc1C [AZD1283-1-NB590]			NanoBRET Fold Response (ADCYAP1R1, 0.1μM): 0.93; NanoBRET Fold Response (ADCYAP1R1, 1μM): 0.96
